From PMC6143625, “A high throughput screen for next-generation leads targeting malaria parasite transmission” (Nature Communications, 2018)
pIC50: −log10 of the molar value.

Columns and labels:
[1] = test system: P. falciparum stage V female gametocytes (female gamete formation); test: P. falciparum dual gamete formation assay (Pf DGFA), female readout (Pfs25 expression), 48 h carry-over format; format: cell-based, Plasmodium falciparum NF54; settings: Plasmodium falciparum, 48 h incubation; for pIC50: 48 h, dose response retest of primary hits, read-out: Female IC50; for inhibition at 2 µM: primary screen, single replicate
[2] = test system: P. falciparum stage V male gametocytes (male gamete formation); test: P. falciparum dual gamete formation assay (Pf DGFA), male readout (exflagellation), 48 h carry-over format; format: cell-based, Plasmodium falciparum NF54; settings: Plasmodium falciparum, 48 h incubation; for pIC50: 48 h, dose response retest of primary hits, read-out: Male IC50; for inhibition at 2 µM: primary screen, single replicate
HepG2 human cells = test system: HepG2 human cells; parameters: method as in http://dx.doi.org/10.6019/CHEMBL3507680; settings: ref http://dx.doi.org/10.6019/CHEMBL3507680; cited from earlier work
[3] = test system: P. falciparum 3D7 asexual blood stages; test: Whole-cell time extended asexual growth assay (pLDH); format: cell-based; settings: Plasmodium falciparum, 72 h; for IC50: dose response retest, read-out: IC50 (µM) Asex stages; for inhibition at 2 µM: primary screen, read-out: %Inh Asex stages @2uM
Procedure: Asexual activity was assayed via Plasmodium lactate dehydrogenase activity (pLDH), a surrogate of asexual parasite growth. […] 2 µM artesunate and DMSO were used as the positive and negative controls, respectively. […] After plate mixing, NBT reduction was measured by absorbance at 650 nm using Envision (Perkin Elmer).

COc1ccc(NC(=O)Cn2nc(C)c(C(C)=O)c2C)cc1 [DDD01027600]
pIC50 [1]: 5.25
inhibition at 2 µM [1]: < 30%
pIC50 [2]: 5.91
inhibition at 2 µM [2]: 47.3%
%Inh HepG2 @10uM (HepG2 human cells): 2.67%
IC50 [3]: 0.298 µM
inhibition at 2 µM [3]: 73.1%

NCC1CCN(C2CCN(c3ccc(-c4ccco4)cc3)CC2)C1 (centres unmarked) [DDD01252361]
pIC50 [1]: 5.44
inhibition at 2 µM [1]: 64%
pIC50 [2]: 5.95
inhibition at 2 µM [2]: 94.8%
%Inh HepG2 @10uM (HepG2 human cells): 101.96%
IC50 [3]: 1.73 µM
inhibition at 2 µM [3]: 68.3%

CCNC(=O)C(C)NC(=O)c1cnc(-c2ccc(C)cc2C)s1 (centres unmarked) [DDD01300473]
%Inh HepG2 @10uM (HepG2 human cells): 1.57%
IC50 [3]: 2.86 µM
inhibition at 2 µM [3]: 37%

Cc1nc2ccccc2nc1CN1CCCC1Cn1cccn1 (centres unmarked) [DDD01301355]
%Inh HepG2 @10uM (HepG2 human cells): 20.57%
IC50 [3]: 8.56 µM
inhibition at 2 µM [3]: 31%

CN(Cc1ncc(C(C)(C)C)o1)CC1CCCN1c1cccnn1 (centres unmarked) [DDD01301524]
%Inh HepG2 @10uM (HepG2 human cells): 23.44%
IC50 [3]: 5.73 µM
inhibition at 2 µM [3]: 31.2%

CC(C)c1cc(NC(=O)c2ccc(C(=O)NC(C)(C)C)cc2)[nH]n1 [DDD01301645]
%Inh HepG2 @10uM (HepG2 human cells): -4.05%
IC50 [3]: 4.02 µM
inhibition at 2 µM [3]: 33.2%

CCC(C)(C)NC(=O)CN(C)C(c1cccc(F)c1)c1ccccn1 (centres unmarked) [DDD01301778]
%Inh HepG2 @10uM (HepG2 human cells): 0.64%
IC50 [3]: 6.7 µM
inhibition at 2 µM [3]: 30.8%

Cc1ccc(Cl)cc1N1CCC(CNC(=O)CCn2ccnc2)C1 (centres unmarked) [DDD01302767]
%Inh HepG2 @10uM (HepG2 human cells): -10.10%
IC50 [3]: 3.83 µM
inhibition at 2 µM [3]: 33.8%

COc1ccc(CNCC2CCN(CC(C)O)CC2)c2ccccc12 (centres unmarked) [DDD01302860]
%Inh HepG2 @10uM (HepG2 human cells): 29.84%
IC50 [3]: 2.69 µM
inhibition at 2 µM [3]: 39.2%

Cc1cc(C)n(C2CN(CC(O)c3ccc4c(c3)OCO4)C2)n1 (centres unmarked) [DDD01303662]
%Inh HepG2 @10uM (HepG2 human cells): -2.16%
IC50 [3]: 7.81 µM
inhibition at 2 µM [3]: 40.2%

CC(C)c1nn(C)c(Cl)c1CNCC(O)c1cccc(F)c1.Cl (centres unmarked) [DDD01304823]
%Inh HepG2 @10uM (HepG2 human cells): -10.30%
IC50 [3]: 3.62 µM
inhibition at 2 µM [3]: 34.2%

Cc1nc(CN2CCCC(N(C)Cc3c(C)noc3C)C2)no1 (centres unmarked) [DDD01304956]
%Inh HepG2 @10uM (HepG2 human cells): 10.61%
IC50 [3]: 3.93 µM
inhibition at 2 µM [3]: 31.2%

O=C1CCCCN1c1cccc(CNC2CCCC2)c1 [DDD01305031]
%Inh HepG2 @10uM (HepG2 human cells): -17.90%
IC50 [3]: 6.03 µM
inhibition at 2 µM [3]: 31.2%
